The numbers were not newly measured in US9260379B2 (Ocera Therapeutics, Inc., priority 2010, dated 2016), which cites them from elsewhere.

For this series the following is noted: free acid.

As for `O=C(O)Cc1ccccc1` [phenyl acetic acid], the pKa is listed as roughly 4.28.
